From US9260382B2, “Methods of reducing virulence in bacteria” (priority 2010, dated 2016) come the findings set out here.

Several values for one entry are separate records, joined by “and”; a condition that tells them apart may be missing. Identical values can stand only once.

The subject of one assay is hrpN promoter (T3SS). The assay is described as follows: GFP reporter plasmid phrpN, flow cytometry of hrpN promoter activity. The format is cell-based, Dickeya dadantii 3937. The settings on record: for GFP Mean Fluorescence Intensity, hrpN promoter: MM + 0.1 mM compound; for mean fluorescence intensity of GFP, hrpN promoter: 3937 (phrpN), MM + 100 μM. As to the method:
(§1) FACS analysis of promoter activity of dspE, hrpA, hrpL, hrpN, and hrpS was carried out as described (Peng et al., 2006). Briefly, the wild-type Ech3937 and the mutant strains carrying the promoter reporter plasmid were grown on LB broth at 28° C. overnight and transferred to appropriate media. For FACS analysis, samples were collected by centrifugation, washed with 1× phosphate buffer saline (PBS) at 13,000 rpm for 1 min, and re-suspended in 1×PBS to ca 10^6 CFU/ml prior to being run in a FACS Calibur flow cytometer (BD Biosciences, CA). Three replicates were performed for each treatment.
(§2) Phenolic compounds constitute an important class of organic substances produced by plants. The phenolic compound SA is a signaling molecule that plays a role in host defenses. OCA and TCA are the biosynthetic precursors of SA and are also reported to induce the expression of defense-related genes in plants. OCA, TCA, and SA were examined to elucidate their effects on the expression of T3SS genes. The expression of the T3SS gene hrpN was examined in MM and MM supplemented with OCA, TCA, and SA, at concentrations of 0.05, 0.1, and 0.2 mM, respectively. FIGS. 2A and 2B show the promoter activities of hrpN in Dickeya dadantii 3937 (Ech3937) grown in MM and MM supplemented with 0.05, 0.1, and 0.2 mM OCA, TCA, and SA at 12 h (FIG. 2A) and 24 h (FIG. 2B) post-inoculation. GFP intensity was determined on gated populations of bacterial cells by flow cytometry and analyzed with the Cell Quest software (BD Biosciences, San Jose, Calif.). The growth of Ech3937 in MM supplemented with different concentrations of OCA, TCA and SA was recorded. Compared with MM alone, the average GFP fluorescence intensity of bacterial cells of Ech3937 (phrpN) was increased approximately 4-fold when 0.05 mM of OCA and TCA were added to the medium (FIGS. 2A, 2B).
A general note: A flow cytometer gives signals particle by particle.

The subject of a further assay is hrpL promoter. The assay is described as follows: GFP reporter plasmid phrpL, flow cytometry of hrpL promoter activity. The settings on record: for GFP Mean Fluorescence Intensity, hrpL promoter: MM + 0.1 mM compound; for mean fluorescence intensity of GFP, hrpL promoter: 3937 (phrpL), MM + 100 μM. The format is cell-based, Dickeya dadantii 3937. The method, then:
as §1

For another assay, the system named is hrpS promoter. The assay is described as follows: GFP reporter plasmid phrpS, flow cytometry of hrpS promoter activity. The assay is classed as cell-based, Dickeya dadantii 3937. The settings on record: for GFP Mean Fluorescence Intensity, hrpS promoter: MM + 0.1 mM compound; for mean fluorescence intensity of GFP, hrpS promoter: 3937 (phrpS), MM + 100 μM. The method, then: as §1
To test for an inhibitory effect on T3SS hrpS expression, the reporter plasmid phrpS was used to measure the effects of these compounds on hrpA expression.

Another assay concerns hrpA promoter (T3SS). The assay is described as follows: GFP reporter plasmid phrpA, flow cytometry (FACS) of hrpA promoter activity. The assay is classed as cell-based, Dickeya dadantii 3937. As to conditions: for GFP Mean Fluorescence Intensity, hrpA promoter: MM + 0.1 mM compound. The method in brief:
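D. dadantii (Ech) 3937 carrying the phrpA promoter–GFP transcriptional fusion was grown in T3SS minimal medium with 100 μM compound, starting from an inoculum of OD600 1.0. GFP was read by flow cytometry at 12 and 24 h. Values are mean fluorescence intensity of three replicates ± SD, with compound-free MM as control.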

Assay [1] deals with Dickeya dadantii 3937 (Ech3937). The assay is described as follows: Bacterial growth in MM supplemented with compound. The format is cell-based. The settings on record: compound added into the MM.
Description: as §2
The expression of the T3SS gene hrpA was further examined in MM and MM supplemented with PCA at concentrations of 0.001, 0.005, 0.01, 0.05 and 0.1 mM respectively. FIGS. 16A and 16B show the promoter activities of hrpA in Dickeya dadantii 3937 (Ech3937) grown in minimum medium (MM) and MM supplemented with different amount of p-coumaric acid (PCA) at 12 h (FIG. 16A) and 24 h (FIG. 16B) post-inoculation. GFP intensity was determined on gated populations of bacterial cells by flow cytometry and analyzed with the Cell Quest software (BD Biosciences, San Jose, Calif.). The growth of Ech3937 in MM supplemented with different concentrations of PCA was recorded. Compared with MM alone, the average GFP fluorescence intensity of bacterial cells of Ech3937 (phrpA) was reduced more than 4-fold when 0.05 and 0.1 mM of PCA were added to the medium (FIGS. 16A, 16B).

The mark [2] stands for this setting: hrpL mutant WPP96 (phrpN), 12 h.
Where [3] appears, read: hrpL mutant WPP96 (phrpA), 12 h.
The mark [4] stands for this setting: Trial 1, MM supplemented with compound at 100 μM.

As for `O=C(O)/C=C/c1ccccc1` [Compound 001, trans-cinnamic acid], the “increase of average GFP fluorescence intensity of Ech3937 (phrpN) compared with MM alone” value in the assay with hrpN promoter (T3SS) (0.05 mM compound, 12 h and 24 h (FIGS. 2A, 2B)) is “approximately 4 fold”. Moreover, the “hrpN expression in Ech3937 and hrpX, hrpY, hrpS mutants, in words” value in the assay with hrpN promoter (T3SS) (0.1 mM, 12 h (FIG. 5)) was “induced the expression of hrpN in Ech3937, but not in hrpX, hrpY, and hrpS mutants”. Further, the “GFP Mean Fluorescence Intensity, hrpN promoter” value worked out at 103 ± 1 in the assay on hrpN promoter (T3SS) (Ech3937 (phrpN), 12 h) and 3.3 ± 0 with hrpN promoter (T3SS) (setting [2]). The “GFP Intensity of Ech3937 (phrpN)” value in the assay on hrpN promoter (T3SS) (MM + 0.2 μM compound, 12 h) was determined as 65.1 ± 6.8; in the assay on hrpN promoter (T3SS) (MM + 0.2 μM compound, 24 h), 163 ± 25; with hrpN promoter (T3SS) (MM + 0.5 μM compound, 12 h) it was 73.4 ± 4.2; with hrpN promoter (T3SS) (MM + 0.5 μM compound, 24 h) it was 158 ± 20; in the assay on hrpN promoter (T3SS) (MM + 5 μM compound, 12 h), 134 ± 5.6; in the assay on hrpN promoter (T3SS) (MM + 5 μM compound, 24 h), 266 ± 14. Moreover, the “GFP Intensity of Ech3937 (phrpN)” value worked out at 147 ± 18 with hrpN promoter (T3SS) (MM + 10 μM compound, 12 h) and 284 ± 12 in the assay with hrpN promoter (T3SS) (MM + 10 μM compound, 24 h). Also, the “GFP Mean Fluorescence Intensity, hrpL promoter” value turned out to be 19 ± 1 with hrpL promoter (Ech3937 (phrpL), 12 h) and 331 ± 27 with hrpL promoter (hrpL mutant WPP96 (phrpL), 12 h). For the same molecule, the “GFP Mean Fluorescence Intensity, hrpS promoter” value worked out at 54 ± 2 in the assay on hrpS promoter (Ech3937 (phrpS), 12 h) and 360 ± 16 with hrpS promoter (hrpL mutant WPP96 (phrpS), 12 h). Moreover, in the assay on hrpA promoter (T3SS) (0.1 mM, 12 h), the “change of average GFP fluorescence intensity of Ech3937 (phrpA) vs MM alone, in words” value is given as “doubled”. For the same molecule, the “GFP Mean Fluorescence Intensity, hrpA promoter” value with hrpA promoter (T3SS) (Ech3937 (phrpA), 6 h) was 22.3 ± 2.1; with hrpA promoter (T3SS) (Ech3937 (phrpA), 24 h), 203.7 ± 16.1; with hrpA promoter (T3SS) (setting [3]) it was 6.2 ± 0.6. The “effect on bacterial growth of Ech3937 in MM, in words” value in assay [1] is on record as “No reduction of bacterial growth”.

On to `O=C(O)/C=C/c1ccc(O)cc1` [Compound 004, para-coumaric acid], for which the “GFP Mean Fluorescence Intensity, hrpN promoter” value in the assay with hrpN promoter (T3SS) (Ech3937 (phrpN), 12 h, listed as PCA) was 6.8 ± 0.8 and 4.3 ± 0.1; with hrpN promoter (T3SS) (Ech3937 (phrpN), 24 h, listed as PCA), 8.8 ± 2.1; in the assay on hrpN promoter (T3SS) (setting [2]) it was 3.0 ± 0.0; in the assay on hrpN promoter (T3SS) (hrpL mutant WPP96 (phrpN), 24 h), 4.3 ± 0.1; in the assay with hrpN promoter (T3SS) (hrpS mutant WPP90 (phrpN), 12 h), 3.5 ± 0.1; in the assay with hrpN promoter (T3SS) (hrpS mutant WPP90 (phrpN), 24 h), 5.1 ± 0.1. Moreover, the “GFP Mean Fluorescence Intensity, hrpN promoter” value came to 3.5 ± 0.2 with hrpN promoter (T3SS) (hrpX mutant WPP67 (phrpN), 12 h); 6.3 ± 0.7 in the assay with hrpN promoter (T3SS) (hrpX mutant WPP67 (phrpN), 24 h); 3.6 ± 0.1 in the assay with hrpN promoter (T3SS) (hrpY mutant WPP92 (phrpN), 12 h); 5.5 ± 0.3 in the assay on hrpN promoter (T3SS) (hrpY mutant WPP92 (phrpN), 24 h). Also, in the assay on hrpL promoter (Ech3937 (phrpL), 12 h), the “GFP Mean Fluorescence Intensity, hrpL promoter” value was determined as 7.8 ± 0.1. The “inhibitory effect on hrpA at 10 μM, in words” value in the assay with hrpA promoter (T3SS) (10 μM added to T3SS-inducing minimal medium (MM)) is given as “No inhibitory effect”. Moreover, the “GFP Mean Fluorescence Intensity, hrpA promoter” value worked out at 9.2 ± 0.4 with hrpA promoter (T3SS) (Ech3937 (phrpA), 12 h, listed as PCA); 7.3 ± 0.1 with hrpA promoter (T3SS) (setting [3]); 9.0 ± 1.6 in the assay on hrpA promoter (T3SS) (hrpL mutant WPP96 (phrpA), 24 h); 7.9 ± 0.2 in the assay with hrpA promoter (T3SS) (hrpS mutant WPP90 (phrpA), 12 h); 9.3 ± 0.2 in the assay on hrpA promoter (T3SS) (hrpS mutant WPP90 (phrpA), 24 h); 7.9 ± 0.2 in the assay on hrpA promoter (T3SS) (hrpX mutant WPP67 (phrpA), 12 h). Further, the “GFP Mean Fluorescence Intensity, hrpA promoter” value in the assay with hrpA promoter (T3SS) (hrpX mutant WPP67 (phrpA), 24 h) is reported as 9.0 ± 1.3; in the assay with hrpA promoter (T3SS) (hrpY mutant WPP92 (phrpA), 12 h), 6.9 ± 0.1; in the assay on hrpA promoter (T3SS) (hrpY mutant WPP92 (phrpA), 24 h), 9.4 ± 0.7. Besides, the “Mean Fluorescence Intensity of GFP (hrpA, phrpA)” value is reported as 9.4 ± 0.1 with hrpA promoter (T3SS) (setting [4]) and 9.3 ± 0.2 with hrpA promoter (T3SS) (Trial 2, MM supplemented with compound at 100 μM). Further, in the assay with hrpA promoter (T3SS) (concentrations at 0.001, 0.005 and 0.01), the “effect on GFP fluorescence intensity of Ech3937 (phrpA), in words” value is “did not result in substantial reduction of GFP fluorescence intensity”. In assay [1], the “effect on bacterial growth of Ech3937 in MM, in words” value is reported as “Inhibition of bacterial growth was not observed”.

As for `O=C(/C=C/c1ccc(O)cc1)NO` [Compound 103, trans-4-Hydroxycinnamohydroxamic acid], the “mean fluorescence intensity of GFP, hrpN promoter” value in the assay on hrpN promoter (T3SS) (12 h) came to 5.8 ± 0.7; with hrpN promoter (T3SS) (24 h), 5.4 ± 0.3. Besides, the “mean fluorescence intensity of GFP, hrpL promoter” value is given as 7.6 ± 0.2 in the assay on hrpL promoter (12 h) and 7.7 ± 0.2 in the assay with hrpL promoter (24 h). In addition, the results for the “mean fluorescence intensity of GFP, hrpS promoter” value in the assay on hrpS promoter (12 h) and in the assay with hrpS promoter (24 h) were 27.7 ± 1.5 and 26.4 ± 0.6, respectively. In addition, the “inhibitory effect on T3SS hrpS expression, in words” value with hrpS promoter (reporter plasmid phrpS) was “inhibited hrpS”. The “reduction of hrpA expression” value in the assay with hrpA promoter (T3SS) (10 μM added to the medium) is “approximately 4 fold”. For the same molecule, the “inhibitory activity on T3SS gene (hrpA) expression, in words” value in the assay with hrpA promoter (T3SS) (D. dadantii 3937, reporter plasmid phrpA, 100 μM) is listed as “showed inhibitory effect”. In addition, the minimal effective concentration with hrpA promoter (T3SS) (Dickeya dadantii, read-out: minimal inhibitory concentration on hrpA expression (concentration showing inhibitory effect)) is 10 µM. For the same molecule, the “Mean Fluorescence Intensity of GFP (hrpA, phrpA)” value with hrpA promoter (T3SS) (setting [4]) stood at 9.3 ± 0.3.
